Assay: Solubility of tin ions in polyol solutions with SnF2 at various pH (visual appearance)
Assay type: physicochemical
Settings: for Appearance of polyol solution with SnF2, pH 2-4 / Appearance of polyol solution with SnF2, pH 4-6 / Appearance of polyol solution with SnF2, pH 6-8 / Appearance of polyol solution with SnF2, pH 8-10: aqueous polyol solution + 0.45 g SnF2; for Appearance of polyol solution with SnF2, pH 2-4 / Appearance of polyol solution with SnF2, pH 4-6 / Appearance of polyol solution with SnF2, pH 6-8: cloudy = insoluble tin complexes formed; for Appearance of polyol solution with SnF2, pH 8-10: cloudy = Sn(OH)2 formed; for Appearance of polyol/stannous fluoride solution at a pH of greater than 7: aqueous polyol/stannous fluoride solution, pH greater than 7, cloudy = Sn(OH)2 formation not prevented
Protocol: A 30% (w/w) solution was prepared for each polyol was prepared using the appropriate amount of the pure polyol and deionized water. Next, 46 g of the 30% (w/w) polyol solution was placed in a 250 mL glass beaker with a stirring bar on top of a magnetic stirring apparatus. 21 g of deionized water was added to the glass beaker and the magnetic stirring apparatus was started to commence stirring of the solution. A pH electrode was connected to a pH meter (VWR Scientific, Model 9100, Radnor, Pa.) and the pH electrode (ThermoFisher Scientific, Orion 8165BNWP, Waltham, Mass.) was placed in the stirring polyol solution.
0.45 grams of a tin ion source, such as stannous fluoride, was added to the stirring polyol solution. The pH was recorded once the tin ion source was completely added. The pH of the solution was increased by dropwise addition of a 33% (w/w) solution of NaOH.
0.45 grams of a tin ion source, such as stannous fluoride, was added to the stirring polyol solution. The pH was recorded once the tin ion source was completely added. The pH of the solution was decreased by dropwise addition of a 33% (w/w) solution of HCl.
A solution that appeared cloudy indicated the formation of insoluble tin complexes. At a pH of greater than 7, a cloudy solution indicated the formation of Sn(OH)2. FIG. 1-4 illustrates TABLE 2 by showing the appearance of each solution described in TABLE 2.

Appearance of polyol solution with SnF2, pH 2-4 | Appearance of polyol solution with SnF2, pH 4-6 | Appearance of polyol solution with SnF2, pH 6-8 | Appearance of polyol solution with SnF2, pH 8-10 | Appearance of polyol/stannous fluoride solution at a pH of greater than 7 | Appearance of polyol solution with SnF2, pH 2-4 (listed as sorbitol) | Appearance of polyol solution with SnF2, pH 4-6 (listed as sorbitol) | Appearance of polyol solution with SnF2, pH 6-8 (listed as sorbitol) | Appearance of polyol solution with SnF2, pH 8-10 (listed as sorbitol) | Appearance of polyol solution with SnF2, pH 2-4 (listed as xylitol) | Appearance of polyol solution with SnF2, pH 4-6 (listed as xylitol) | Appearance of polyol solution with SnF2, pH 6-8 (listed as xylitol) | Appearance of polyol solution with SnF2, pH 8-10 (listed as xylitol) | SMILES
Clear | Cloudy | Cloudy | Cloudy | cloudy | – | – | – | – | – | – | – | – | OC[C@@H](O)[C@@H](O)CO [Erythritol (4 Carbon), Erythritol]
Clear | Clear | Cloudy | Cloudy | cloudy | – | – | – | – | – | – | – | – | OCC(O)CO [Glycerin (3 Carbon), Glycerin]
Clear | Cloudy | Cloudy | Clear | – | clear | cloudy | cloudy | clear | – | – | – | – | OC[C@@H](O)[C@@H](O)[C@H](O)[C@@H](O)CO [Sorbitol (6 Carbon), Sorbitol]
Clear | Cloudy | Cloudy | Clear | – | – | – | – | – | clear | cloudy | cloudy | clear | OC[C@@H](O)[C@H](O)[C@@H](O)CO [Xylitol (5 Carbon), Xylitol]
